Measured values as given in ChEMBL document CHEMBL4270553, “Synthesis and anticancer activity of new dihydropyrimidinone derivatives” (Eur J Med Chem, 2018).

Columns and labels:
PC-3 [1] = assay: cells; details: Homo sapiens, PC-3, 24 h
Description: Cytotoxicity against human PC3 cells after 24 hrs by MTT assay

HCT-116 [2] = assay: cells; details: Homo sapiens, HCT-116, 24 h
Description: Cytotoxicity against human HCT116 cells after 24 hrs by MTT assay

MCF7 [3] = assay: Cytotoxicity against human MCF7 cells after 24 hrs by MTT assay; type: functional, cell-based; details: MCF7, 24 h
[4] = target: T1, Serine/threonine-protein kinase mTOR (Homo sapiens, UniProt P42345); assay: Inhibition of mTOR (unknown origin) incubated for 1 hr by ELISA relative to control; details: concentration not given here
HeLa = assay: Cytotoxicity against human HeLa cells; type: functional, cell-based
A549 [5] = assay: Cell cycle arrest in human A549 cells assessed as accumulation of cells at pre-G1 phase at 2 uM after […] by propidium iodide staining-based flow cytometric analysis (reference value: 0.92%); type: functional
NCI-H322M = assay: Antiproliferative activity against human NCI-H322M cells assessed as growth inhibition at 10 uM after 48 hrs by sulforhodamine B assay relative to control; type: functional; details: read-out: GI
BJ = assay: Cytotoxicity against human BJ cells; type: cell-based
A549 [6] = assay: Induction of apoptosis in human A549 cells assessed as caspase9 expression at 3.04 uM after 2 hrs by ELISA (reference value: 0.1726 ng/ml); type: functional
A549 [7] = assay: Induction of apoptosis in human A549 cells assessed as caspase3 expression at 3.04 uM after 2 hrs by ELISA (reference value: 53.45 ng/ml); type: functional
A549 [8] = assay: Induction of apoptosis in human A549 cells assessed as early apoptotic cells at 2 uM after 24 hrs by Annexin V-FITC/propidium iodide staining-based flow cytometric analysis (reference value: 0.52%); type: functional
A549 [9] = assay: Cell cycle arrest in human A549 cells assessed as accumulation of cells at G2/M phase at 2 uM after 24 hrs by propidium iodide staining-based flow cytometric analysis (reference value: 6.2%); type: functional
A549 [10] = assay: Antiproliferative activity against human A549/ATCC cells assessed as growth inhibition at 10 uM after 48 hrs by sulforhodamine B assay relative to control; type: functional; details: A549, 48 h, read-out: GI
HL-60(TB) = assay: Antiproliferative activity against human HL-60(TB) cells assessed as growth inhibition at 10 uM after 48 hrs by sulforhodamine B assay relative to control; type: functional; details: HL-60, 48 h, read-out: GI
PC-3 [11] = assay: Antiproliferative activity against human PC3 cells assessed as growth inhibition at 10 uM after 48 hrs by sulforhodamine B assay relative to control; type: functional; details: PC-3, 48 h, read-out: GI
UO-31 = assay: Antiproliferative activity against human UO31 cells assessed as growth inhibition at 10 uM after 48 hrs by sulforhodamine B assay relative to control; type: functional; details: UO-31, 48 h, read-out: GI
[12] = Cytotoxicity against human WPE1-NA22 cells; type: cell-based
CAKI-1 = assay: Antiproliferative activity against human Caki1 cells assessed as growth inhibition at 10 uM after 48 hrs by sulforhodamine B assay relative to control; type: functional; details: CAKI-1, 48 h, read-out: GI
MOLT-4 = assay: Antiproliferative activity against human MOLT4 cells assessed as growth inhibition at 10 uM after 48 hrs by sulforhodamine B assay relative to control; type: functional; details: MOLT-4, 48 h, read-out: GI
A549 [13] = assay: Induction of apoptosis in human A549 cells assessed as necrotic cells at 2 uM after 24 hrs by Annexin V-FITC/propidium iodide staining-based flow cytometric analysis (reference value: 0.07%); type: functional
NCI/ADR-RES = assay: Antiproliferative activity against human NCI/ADR-RES cells assessed as growth inhibition at 10 uM after 48 hrs by sulforhodamine B assay relative to control; type: functional; details: read-out: GI
NCI-H460 = assay: Antiproliferative activity against human NCI-H460 cells assessed as growth inhibition at 10 uM after 48 hrs by sulforhodamine B assay relative to control; type: functional; details: NCI-H460, 48 h, read-out: GI
A549 [14] = assay: Cell cycle arrest in human A549 cells assessed as accumulation of cells at G0/G1 phase at 2 uM after 24 hrs by propidium iodide staining-based flow cytometric analysis (reference value: 67.62%); type: functional
HCT-15 = assay: Antiproliferative activity against human HCT15 cells assessed as growth inhibition at 10 uM after 48 hrs by sulforhodamine B assay relative to control; type: functional; details: HCT-15, 48 h, read-out: GI
MDA-MB-468 = assay: Antiproliferative activity against human MDA-MB-468 cells assessed as growth inhibition at 10 uM after 48 hrs by sulforhodamine B assay relative to control; type: functional; details: MDA-MB-468, 48 h, read-out: GI
MRC5 = assay: Cytotoxicity against human MRC5 cells; type: cell-based
T47D = assay: Antiproliferative activity against human T47D cells assessed as growth inhibition at 10 uM after 48 hrs by sulforhodamine B assay relative to control; type: functional; details: read-out: GI
A549 [15] = assay: Induction of apoptosis in human A549 cells assessed as late apoptotic cells at 2 uM after 24 hrs by Annexin V-FITC/propidium iodide staining-based flow cytometric analysis (reference value: 0.33%); type: functional
A549 [16] = assay: Cell cycle arrest in human A549 cells assessed as accumulation of cells at S phase at 2 uM after 24 hrs by propidium iodide staining-based flow cytometric analysis (reference value: 25.26%); type: functional
K562 = assay: Antiproliferative activity against human K562 cells assessed as growth inhibition at 10 uM after 48 hrs by sulforhodamine B assay relative to control; type: functional; details: K562, 48 h, read-out: GI
SF-295 = assay: Antiproliferative activity against human SF295 cells assessed as growth inhibition at 10 uM after 48 hrs by sulforhodamine B assay relative to control; type: functional; details: SF-295, 48 h, read-out: GI
LOX IMVI = assay: Antiproliferative activity against human LOXIMVI cells assessed as growth inhibition at 10 uM after 48 hrs by sulforhodamine B assay relative to control; type: functional; details: read-out: GI
A549 [17] = assay: Potency index, ratio of compound activity to 5-FU activity for caspase9 expression in human A549 cells; type: functional
[18] = target: T1, Serine/threonine-protein kinase mTOR; assay: Inhibition of mTOR (unknown origin) incubated for 1 hr by ELISA
A549 [19] = assay: Potency index, ratio of compound activity to 5-FU activity for caspase3 expression in human A549 cells; type: functional
ACHN = assay: Antiproliferative activity against human ACHN cells assessed as growth inhibition at 10 uM after 48 hrs by sulforhodamine B assay relative to control; type: functional; details: read-out: GI
SR = assay: Antiproliferative activity against human SR cells assessed as growth inhibition at 10 uM after 48 hrs by sulforhodamine B assay relative to control; type: functional; details: read-out: GI
NCI-H522 = assay: Antiproliferative activity against human NCI-H522 cells assessed as growth inhibition at 10 uM after 48 hrs by sulforhodamine B assay relative to control; type: functional; details: NCI-H522, 48 h, read-out: GI
SK-MEL-5 = assay: Antiproliferative activity against human SK-MEL-5 cells assessed as growth inhibition at 10 uM after 48 hrs by sulforhodamine B assay relative to control; type: functional; details: SK-MEL-5, 48 h, read-out: GI
A549 [20] = assay: Induction of apoptosis in human A549 cells assessed as viable cells at 2 uM after 24 hrs by Annexin V-FITC/propidium iodide staining-based flow cytometric analysis (reference value: 97.5%); type: functional; details: A549, 24 h, read-out: Activity
OVCAR-4 = assay: Antiproliferative activity against human OVCAR4 cells assessed as growth inhibition at 10 uM after 48 hrs by sulforhodamine B assay relative to control; type: functional; details: OVCAR-4, 48 h, read-out: GI
HCT-116 [21] = assay: Antiproliferative activity against human HCT116 cells assessed as growth inhibition at 10 uM after 48 hrs by sulforhodamine B assay relative to control; type: functional; details: HCT-116, 48 h, read-out: GI
MCF7 [22] = assay: Antiproliferative activity against human MCF7 cells assessed as growth inhibition at 10 uM after 48 hrs by sulforhodamine B assay relative to control; type: functional; details: MCF7, 48 h, read-out: GI
UACC-62 = assay: Antiproliferative activity against human UACC62 cells assessed as growth inhibition at 10 uM after 48 hrs by sulforhodamine B assay relative to control; type: functional; details: UACC-62, 48 h, read-out: GI
A549 [23] = assay: Induction of apoptosis in human A549 cells 24 hrs by propidium iodide staining-based flow cytometric analysis (reference value: 0.92%); type: functional
[24] = target: Vascular endothelial growth factor receptor 2 (Homo sapiens, UniProt P35968)
Sequence of Vascular endothelial growth factor receptor 2 (P35968 whole entry): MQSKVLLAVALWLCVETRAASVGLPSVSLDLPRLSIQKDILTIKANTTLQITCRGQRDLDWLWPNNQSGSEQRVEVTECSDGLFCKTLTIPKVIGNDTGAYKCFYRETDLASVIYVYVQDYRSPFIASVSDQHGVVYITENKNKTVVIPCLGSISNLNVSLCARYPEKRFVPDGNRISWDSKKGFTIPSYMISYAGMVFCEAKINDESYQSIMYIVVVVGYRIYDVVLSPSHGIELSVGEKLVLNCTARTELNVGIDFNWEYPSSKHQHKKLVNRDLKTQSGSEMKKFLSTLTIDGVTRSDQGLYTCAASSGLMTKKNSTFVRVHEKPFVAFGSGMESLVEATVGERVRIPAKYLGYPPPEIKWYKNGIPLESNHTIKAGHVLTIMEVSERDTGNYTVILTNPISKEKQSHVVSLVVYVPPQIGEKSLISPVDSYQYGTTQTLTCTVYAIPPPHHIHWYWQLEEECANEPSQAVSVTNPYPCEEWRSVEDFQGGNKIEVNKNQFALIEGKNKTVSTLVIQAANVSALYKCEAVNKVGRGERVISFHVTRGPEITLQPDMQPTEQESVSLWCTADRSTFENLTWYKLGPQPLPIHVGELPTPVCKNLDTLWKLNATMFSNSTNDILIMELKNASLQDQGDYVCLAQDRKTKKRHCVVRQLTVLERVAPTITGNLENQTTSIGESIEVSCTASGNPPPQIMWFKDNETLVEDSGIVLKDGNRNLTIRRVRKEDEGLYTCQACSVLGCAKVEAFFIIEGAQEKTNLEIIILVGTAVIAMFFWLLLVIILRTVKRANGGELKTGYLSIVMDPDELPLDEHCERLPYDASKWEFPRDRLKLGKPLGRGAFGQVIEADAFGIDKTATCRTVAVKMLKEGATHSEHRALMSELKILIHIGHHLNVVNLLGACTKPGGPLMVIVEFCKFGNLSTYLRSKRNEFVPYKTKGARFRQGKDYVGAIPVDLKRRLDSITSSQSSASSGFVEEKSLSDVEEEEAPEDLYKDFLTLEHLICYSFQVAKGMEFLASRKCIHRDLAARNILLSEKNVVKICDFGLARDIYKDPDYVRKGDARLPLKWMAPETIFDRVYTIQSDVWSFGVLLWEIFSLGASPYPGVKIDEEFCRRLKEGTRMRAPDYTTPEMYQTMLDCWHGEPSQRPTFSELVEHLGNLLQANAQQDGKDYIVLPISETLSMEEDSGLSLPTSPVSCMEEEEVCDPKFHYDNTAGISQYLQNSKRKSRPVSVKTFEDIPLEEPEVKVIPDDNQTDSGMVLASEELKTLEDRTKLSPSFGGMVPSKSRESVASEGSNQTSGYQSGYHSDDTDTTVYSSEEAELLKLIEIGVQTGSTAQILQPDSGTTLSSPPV
Description: Inhibition of human VEGFR-2 incubated for 2.5 hrs by ELISA

CCOC(=O)C1=C(CSc2nc3cc(C)ccc3[nH]2)N(C)C(=O)NC1c1ccccc1 (stereo not given)
IC50 (PC-3 [1]): 22.3 µM | IC50 (HCT-116 [2]): 9.5 µM | IC50 (MCF7 [3]): 19.4 µM

CO[C@H]1C[C@@H]2CC[C@@H](C)[C@@](O)(O2)C(=O)C(=O)N2CCCC[C@H]2C(=O)O[C@H]([C@H](C)C[C@@H]2CC[C@@H](O)[C@H](OC)C2)CC(=O)[C@H](C)/C=C(\C)[C@@H](O)[C@@H](OC)C(=O)[C@H](C)C[C@H](C)/C=C/C=C/C=C/1C [SIROLIMUS]
inhibition [4]: 94.9% | IC50 (HeLa): 0.77 µM

CCOC(=O)C1=C(CSC(=S)N(C2CCCCC2)C2CCCCC2)N(C)C(=O)NC1c1ccccc1 (stereo not given)
Activity (A549 [5]): 7.39% | inhibition of growth at 10 µM (NCI-H322M): 9% | IC50 (BJ): 18.2 µM | Activity (A549 [6]): 18.14 ng/mL | Activity (A549 [7]): 560.4 ng/mL | Activity (A549 [8]): 3.27% | Activity (A549 [9]): 12.41% | inhibition of growth at 10 µM (A549 [10]): 53% | inhibition of growth at 10 µM (HL-60(TB)): 85% | inhibition of growth at 10 µM (PC-3 [11]): 79% | inhibition of growth at 10 µM (UO-31): 56% | IC50 [12]: 32.1 µM | inhibition of growth at 10 µM (CAKI-1): 75% | inhibition of growth at 10 µM (MOLT-4): 72% | Activity (A549 [13]): 0.81% | inhibition of growth at 10 µM (NCI/ADR-RES): 37% | inhibition of growth at 10 µM (NCI-H460): 88% | Activity (A549 [14]): 58.25% | inhibition of growth at 10 µM (HCT-15): 61% | inhibition of growth at 10 µM (MDA-MB-468): 53% | IC50 (MRC5): 32 µM | inhibition of growth at 10 µM (T47D): 50% | Activity (A549 [15]): 3.31% | Activity (A549 [16]): 21.95% | inhibition of growth at 10 µM (K562): 65% | inhibition of growth at 10 µM (SF-295): 61% | inhibition of growth at 10 µM (LOX IMVI): 67% | Ratio (A549 [17]): 100 | IC50 [18]: 0.64 µM | Ratio (A549 [19]): 10 | inhibition of growth at 10 µM (ACHN): 63% | inhibition of growth at 10 µM (SR): 71% | inhibition [4]: 86.6% | inhibition of growth at 10 µM (NCI-H522): 42% | inhibition of growth at 10 µM (SK-MEL-5): 86% | viability at 2 µM (A549 [20]): 90.7% | IC50 (HeLa): 1.85 µM | inhibition of growth at 10 µM (OVCAR-4): 56% | inhibition of growth at 10 µM (HCT-116 [21]): 74% | inhibition of growth at 10 µM (MCF7 [22]): 54% | inhibition of growth at 10 µM (UACC-62): 54% | Activity (A549 [23]): 7.39%

CCOC(=O)C1=C(CSc2nnc(-c3ccc(C)cc3)o2)N(C)C(=O)NC1c1ccccc1 (stereo not given)
IC50 (PC-3 [1]): 61.8 µM | IC50 (HCT-116 [2]): 36 µM | IC50 (MCF7 [3]): 25.3 µM

CCOC(=O)C1=C(CSc2nc3cc([N+](=O)[O-])ccc3[nH]2)N(C)C(=O)NC1c1ccccc1 (stereo not given)
IC50 (PC-3 [1]): 9.18 µM | IC50 (HCT-116 [2]): 7.29 µM | IC50 [24]: 1.2 µM | IC50 (BJ): 37.5 µM | IC50 [12]: 21.7 µM | IC50 (MCF7 [3]): 9.39 µM | IC50 (MRC5): 44.2 µM | IC50 [18]: 0.72 µM | inhibition [4]: 84.6% | IC50 (HeLa): 1.4 µM
